The values that follow come from US20230139171A1 (SITA Information Networking Computing UK Limited, priority 2019, published 2023).

The target in one test is T1, human TLR8 (Homo sapiens, UniProt Q9NR97).
T1 construct: host or cells: HEK-Blue cells
T1 sequence (Q9NR97 27-1041): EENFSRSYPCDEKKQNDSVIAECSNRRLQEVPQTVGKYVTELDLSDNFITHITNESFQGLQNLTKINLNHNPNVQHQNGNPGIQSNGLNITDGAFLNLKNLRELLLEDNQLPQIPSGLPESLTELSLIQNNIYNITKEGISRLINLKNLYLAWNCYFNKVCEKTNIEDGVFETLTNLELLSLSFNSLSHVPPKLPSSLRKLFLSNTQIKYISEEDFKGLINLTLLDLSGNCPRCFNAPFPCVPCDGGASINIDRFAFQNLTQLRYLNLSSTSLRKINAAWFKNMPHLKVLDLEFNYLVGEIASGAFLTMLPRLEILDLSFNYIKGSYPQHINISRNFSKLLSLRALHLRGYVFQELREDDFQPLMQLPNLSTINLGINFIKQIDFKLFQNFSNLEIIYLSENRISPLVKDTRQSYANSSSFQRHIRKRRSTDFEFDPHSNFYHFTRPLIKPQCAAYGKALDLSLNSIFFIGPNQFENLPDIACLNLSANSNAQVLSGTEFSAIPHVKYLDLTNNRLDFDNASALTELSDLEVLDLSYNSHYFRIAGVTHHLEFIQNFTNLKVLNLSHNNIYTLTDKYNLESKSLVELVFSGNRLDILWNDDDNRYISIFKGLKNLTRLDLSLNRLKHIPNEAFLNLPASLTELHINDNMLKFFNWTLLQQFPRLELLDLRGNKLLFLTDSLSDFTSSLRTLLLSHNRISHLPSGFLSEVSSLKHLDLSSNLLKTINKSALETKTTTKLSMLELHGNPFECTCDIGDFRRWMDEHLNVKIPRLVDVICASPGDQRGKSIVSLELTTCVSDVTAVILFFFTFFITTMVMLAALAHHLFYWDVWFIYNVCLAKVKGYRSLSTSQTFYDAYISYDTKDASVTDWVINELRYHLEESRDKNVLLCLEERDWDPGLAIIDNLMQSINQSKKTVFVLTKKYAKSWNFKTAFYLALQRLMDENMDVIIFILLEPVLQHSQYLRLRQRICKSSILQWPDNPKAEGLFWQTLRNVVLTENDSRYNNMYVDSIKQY
As to the kind of experiment: TLR8 inhibition reporter assay (HEK-Blue cells, SEAP reporter, R848 stimulation). The format is cell-based. To be noted: HEK-Blue cells overexpressing human TLR8, SEAP reporter, R848 15.9 μM; read-out: TLR8 IC50. As for the experimental part:
(§1) TLR7/8/9 Inhibition Reporter Assays
(§2) HEK-Blue™-cells (Invivogen) overexpressing human TLR7, TLR8 or TLR9 receptors were used for screening inhibitors of these receptors using an inducible SEAP (secreted embryonic alkaline phosphatase) reporter gene under the control of the IFN-β minimal promoter fused to five NF-κB and AP-1-binding sites. Briefly, cells are seeded into Greiner 384 well plates (15000 cells per well for TLR7, 20,000 for TLR8 and 25,000 for TLR9) and then treated with test compounds in DMSO to yield a final dose response concentration range of 0.05 nM-50 μM. After a 30 minute compound pre-treatment at room temperature, the cells are then stimulated with a TLR7 ligand (gardiquimod at a final concentration of 7.5 μM), TLR8 ligand (R848 at a final concentration of 15.9 μM) or TLR9 ligand (ODN2006 at a final concentration of 5 nM) to activate NF-κB and AP-1 which induce the production of SEAP. After a 22 hour incubation at 37° C., 5% CO2, SEAP levels are determined with the addition of HEK-Blue™ Detection reagent (Invivogen), a cell culture medium that allows for detection of SEAP, according to manufacturer's specifications. The percent inhibition is determined as the % reduction in the HEK-Blue signal present in wells treated with agonist plus DMSO alone compared to wells treated with a known inhibitor.
In general terms: A reporter such as luciferase makes a cellular process visible.

The target in another test is T2, human TLR7 (Homo sapiens, UniProt Q9NYK1).
T2 construct: host or cells: HEK-Blue cells
T2 sequence (Q9NYK1 27-1049): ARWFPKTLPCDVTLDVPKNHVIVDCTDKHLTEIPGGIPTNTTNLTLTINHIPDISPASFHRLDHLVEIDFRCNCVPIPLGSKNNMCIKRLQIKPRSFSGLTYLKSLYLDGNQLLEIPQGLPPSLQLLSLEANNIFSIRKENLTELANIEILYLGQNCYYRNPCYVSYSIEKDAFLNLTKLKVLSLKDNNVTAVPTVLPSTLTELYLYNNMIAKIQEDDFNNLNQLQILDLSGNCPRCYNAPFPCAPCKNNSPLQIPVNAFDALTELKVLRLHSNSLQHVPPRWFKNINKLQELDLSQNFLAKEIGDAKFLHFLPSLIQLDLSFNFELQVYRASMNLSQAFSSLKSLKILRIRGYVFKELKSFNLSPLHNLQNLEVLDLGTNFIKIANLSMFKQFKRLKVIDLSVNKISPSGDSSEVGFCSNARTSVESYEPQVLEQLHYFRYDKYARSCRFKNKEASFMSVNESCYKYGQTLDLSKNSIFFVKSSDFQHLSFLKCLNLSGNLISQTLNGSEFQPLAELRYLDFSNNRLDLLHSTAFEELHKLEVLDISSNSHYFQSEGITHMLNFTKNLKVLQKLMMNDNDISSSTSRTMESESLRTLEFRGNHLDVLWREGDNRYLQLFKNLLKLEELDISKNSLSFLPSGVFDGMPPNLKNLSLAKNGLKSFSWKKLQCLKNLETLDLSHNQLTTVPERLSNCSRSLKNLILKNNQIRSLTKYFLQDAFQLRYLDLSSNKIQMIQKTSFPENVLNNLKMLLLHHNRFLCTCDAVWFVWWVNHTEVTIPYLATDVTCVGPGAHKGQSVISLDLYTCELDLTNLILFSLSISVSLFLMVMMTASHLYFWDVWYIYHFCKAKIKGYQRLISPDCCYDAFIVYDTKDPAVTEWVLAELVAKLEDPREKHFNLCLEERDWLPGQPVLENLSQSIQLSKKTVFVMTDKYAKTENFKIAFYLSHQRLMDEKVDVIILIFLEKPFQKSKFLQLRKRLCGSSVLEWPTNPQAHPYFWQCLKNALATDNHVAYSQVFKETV
Kind of test: TLR7 inhibition reporter assay (HEK-Blue cells, SEAP reporter, gardiquimod stimulation). The format is cell-based. Particulars: HEK-Blue cells overexpressing human TLR7, SEAP reporter, gardiquimod 7.5 μM; read-out: TLR7 IC50. The procedure:
as §1, §2

Structures are written as SMILES.

What is called IC50 is the concentration needed to halve the response being measured. Regarding `Cc1c(-c2[nH]c3sc(C4CCN(CCS(C)(=O)=O)CC4)nc3c2C(C)C)cn2ncnc2c1C` [Example 55, 5-(7,8-dimethyl-[1,2,4]triazolo[1,5-a]pyridin-6-yl)-6-isopropyl-2-(1-(2-(methylsulfonyl)ethyl)piperidin-4-yl)-4H-pyrrolo[3,2-d]thiazole], the half-inhibitory concentration (IC50) on human TLR8 stood at 1.15 nM; on human TLR7, 2.99 nM.
With `Cc1c(-c2[nH]c3sc(C(=O)N4CCNC(=O)C4)nc3c2C(C)C)cn2ncnc2c1C` [Example 378, 4-(5-(7,8-dimethyl-[1,2,4]triazolo[1,5-a]pyridin-6-yl)-6-isopropyl-4H-pyrrolo[3,2-d]thiazole-2-carbonyl)piperazin-2-one], the IC50 was determined as 12.2 nM at human TLR8 and 29.4 nM at human TLR7.
The corresponding values for `Cc1c(-c2[nH]c3sc(N4CC5(CN(CC6CCOCC6)C5)C4)nc3c2C(C)C)cn(C)c(=O)c1C` [Example 307, 5-(6-isopropyl-2-(6-((tetrahydro-2H-pyran-4-yl)methyl)-2,6-diazaspiro[3.3]heptan-2-yl)-4H-pyrrolo[3,2-d]thiazol-5-yl)-1,3,4-trimethylpyridin-2(1H)-one] are 9.33 nM and 118 nM.
On the same counts, the results for `Cc1cc(-c2[nH]c3sc(N4CCN(C(=O)CN(C)C)C[C@H]4C)nc3c2C(C)C)cn2ncnc12` [Example 360, (R)-2-(dimethylamino)-1-(4-(6-isopropyl-5-(8-methyl-[1,2,4]triazolo[1,5-a]pyridin-6-yl)-4H-pyrrolo[3,2-d]thiazol-2-yl)-3-methylpiperazin-1-yl)ethan-1-one] are 1330 nM and 1220 nM.
For `Cc1c(-c2[nH]c3sc(N4CCN(C(=O)C5CCS(=O)(=O)CC5)C[C@@H]4C)nc3c2C(C)C)cn2ncnc2c1C` [Example 347, (S)-(4-(5-(7,8-dimethyl-[1,2,4]triazolo[1,5-a]pyridin-6-yl)-6-isopropyl-4H-pyrrolo[3,2-d]thiazol-2-yl)-3-methylpiperazin-1-yl)(1,1-dioxidotetrahydro-2H-thiopyran-4-yl)methanone], the IC50 on human TLR8 came out at 44.5 nM; at human TLR7, 22.9 nM.
The corresponding values for `CC(C)c1c(-c2cn(C)c3ncccc23)[nH]c2sc(C3CCN(CC(N)=O)CC3)nc12` [Example 31, 2-(4-(6-isopropyl-5-(1-methyl-1H-pyrrolo[2,3-b]pyridin-3-yl)-4H-pyrrolo[3,2-d]thiazol-2-yl)piperidin-1-yl) acetamide] are 3.02 nM and 3.98 nM.
On the same counts, the results for `Cc1c(-c2[nH]c3sc(N4CCN(C5CCC5)C[C@@H]4C)nc3c2C(C)C)cn2ncnc2c1C` [Example 349] are 1.85 nM and 91 nM.
On the same counts, the results for `Cc1c(-c2[nH]c3sc(CN4CCOCC4)nc3c2C(C)C)cn2ncnc2c1C` [Example 407, 4-((5-(7,8-dimethyl-[1,2,4]triazolo[1,5-a]pyridin-6-yl)-6-isopropyl-4H-pyrrolo[3,2-d]thiazol-2-yl)methyl)morpholine] are 279 nM and 28.6 nM.
For `Cc1c(-c2[nH]c3sc(N4CCN(CCS(C)(=O)=O)C[C@@H]4C)nc3c2C(C)C)cn2ncnc2c1C` [Example 344, (S)-5-(7,8-dimethyl-[1,2,4]triazolo[1,5-a]pyridin-6-yl)-6-isopropyl-2-(2-methyl-4-(2-(methylsulfonyl)ethyl)piperazin-1-yl)-4H-pyrrolo[3,2-d]thiazole], the half-inhibitory concentration (IC50) stood at 12.7 nM at human TLR8 and 39 nM on human TLR7.
On the same counts, the results for `CC(C)c1c(-c2cn(C)c3ncccc23)[nH]c2sc(C3CCN(C4COC4)CC3)nc12` [Example 34, 6-isopropyl-5-(1-methyl-1H-pyrrolo[2,3-b]pyridin-3-yl)-2-(1-(oxetan-3-yl)piperidin-4-yl)-4H-pyrrolo[3,2-d]thiazole] are 4.94 nM and 4.44 nM.
The corresponding values for `COc1cc(-c2[nH]c3sc(C(=O)NCC(F)(F)F)nc3c2C(C)C)cn2ncnc12` [Example 390, 6-isopropyl-5-(8-methoxy-[1,2,4]triazolo[1,5-a]pyridin-6-yl)-N-(2,2,2-trifluoroethyl)-4H-pyrrolo[3,2-d]thiazole-2-carboxamide] are 481 nM and 93.6 nM.
On the same counts, the results for `Cc1c(-c2[nH]c3sc(N4CCN(CC(=O)N(C)C)C[C@@H]4C)nc3c2C(C)C)cn2ncnc2c1C` [Example 343, (S)-2-(4-(5-(7,8-dimethyl-[1,2,4]triazolo[1,5-a]pyridin-6-yl)-6-isopropyl-4H-pyrrolo[3,2-d]thiazol-2-yl)-3-methylpiperazin-1-yl)-N,N-dimethylacetamide] are 3.3 nM and 24.1 nM.
For `Cc1cc(-c2[nH]c3sc(C(=O)N4CCNC(=O)C4)nc3c2C(C)C)cn2ncnc12` [Example 392, 4-(6-isopropyl-5-(8-methyl-[1,2,4]triazolo[1,5-a]pyridin-6-yl)-4H-pyrrolo[3,2-d]thiazole-2-carbonyl)piperazin-2-one], the IC50 on human TLR8 is 404 nM; at human TLR7, 241 nM.
As to `Cc1c(-c2[nH]c3sc(C(=O)N4CCN(S(C)(=O)=O)CC4)nc3c2C(C)C)cn2ncnc2c1C` [Example 384, (5-(7,8-dimethyl-[1,2,4]triazolo[1,5-a]pyridin-6-yl)-6-isopropyl-4H-pyrrolo[3,2-d]thiazol-2-yl)(4-(methylsulfonyl)piperazin-1-yl) methanone], the IC50 is 20.1 nM at human TLR8 and 39.5 nM on human TLR7.
The corresponding values for `Cc1c(-c2[nH]c3sc(N4CCN(CC(N)=O)CC4)nc3c2C(C)C)cn2ncnc2c1C` [Example 285, 2-(4-(5-(7,8-dimethyl-[1,2,4]triazolo[1,5-a]pyridin-6-yl)-6-isopropyl-4H-pyrrolo[3,2-d]thiazol-2-yl)piperazin-1-yl)acetamide] are 2.71 nM and 7.7 nM.
